Measured values published in ChEMBL document CHEMBL1138332, “Synthesis of natural product-inspired inhibitors of Mycobacterium tuberculosis mycothiol-associated enzymes: the first inhibitors of GlcNAc-Ins deacetylase” (J Med Chem, 2007).

What was measured:
[1] = biological target: T1, 1D-myo-inositol 2-acetamido-2-deoxy-alpha-D-glucopyranoside deacetylase (Mycobacterium tuberculosis, UniProt P9WJN3); test: Inhibition of Mycobacterium tuberculosis MshB by fluorescence-detected HPLC assay
T1 sequence (P9WJN3 whole entry): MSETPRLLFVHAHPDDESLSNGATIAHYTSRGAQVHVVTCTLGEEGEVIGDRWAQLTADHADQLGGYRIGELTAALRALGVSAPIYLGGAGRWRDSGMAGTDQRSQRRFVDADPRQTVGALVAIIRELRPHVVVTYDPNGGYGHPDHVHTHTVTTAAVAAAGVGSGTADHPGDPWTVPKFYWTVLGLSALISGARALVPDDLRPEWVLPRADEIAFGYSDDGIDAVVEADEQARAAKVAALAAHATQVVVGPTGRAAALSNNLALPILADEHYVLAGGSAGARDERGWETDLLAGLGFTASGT

[2] = biological target: T2, Mycothiol S-conjugate amidase (Mycobacterium tuberculosis, UniProt P9WJN1); test: Inhibition of Mycobacterium tuberculosis MCA by fluorescence-detected HPLC assay
T2 sequence (P9WJN1 whole entry): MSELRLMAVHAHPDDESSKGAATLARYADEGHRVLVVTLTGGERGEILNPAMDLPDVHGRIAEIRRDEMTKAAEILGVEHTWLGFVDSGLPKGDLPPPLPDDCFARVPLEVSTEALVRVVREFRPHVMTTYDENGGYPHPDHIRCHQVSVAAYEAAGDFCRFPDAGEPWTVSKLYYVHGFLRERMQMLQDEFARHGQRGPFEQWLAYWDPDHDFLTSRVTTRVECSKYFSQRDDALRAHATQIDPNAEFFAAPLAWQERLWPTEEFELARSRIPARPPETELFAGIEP

| Structure (SMILES) | IC50 [1] | IC50 [2] |
| --- | --- | --- |
| CC(C)(C)C(=O)ON[C@@H](CCc1ccccc1)C(=O)N[C@H]1[C@H](O)[C@@H](O)[C@H](CO)O[C@H]1SC1CCCCC1 | > 200 µM | 145 µM |
| O=C(N[C@H]1[C@H](O)[C@@H](O)[C@H](CO)O[C@H]1SC1CCCCC1)c1ccc(-c2ccc(Cl)cc2)o1 (single isomer, unassigned) | 7 µM | 33 µM |
| O=S(=O)(CCCCc1ccccc1)N[C@H]1[C@H](O)[C@@H](O)[C@H](CO)O[C@H]1SC1CCCCC1 (single isomer, unassigned) | 101 µM | 120 µM |
| O=C(N[C@H]1[C@H](O)[C@@H](O)[C@H](CO)O[C@H]1SC1CCCCC1)C1CCOC(c2cccc(F)c2)=N1 (single isomer, unassigned) | 10 µM | > 200 µM |
| O=C(N[C@H]1[C@H](O)[C@@H](O)[C@H](CO)O[C@H]1SC1CCCCC1)C1COC(c2cccc(F)c2)=N1 (single isomer, unassigned) | 28 µM | > 200 µM |
| O=S(=O)(/C=C/CCc1ccccc1)N[C@H]1[C@H](O)[C@@H](O)[C@H](CO)O[C@H]1SC1CCCCC1 (single isomer, unassigned) | 105 µM | 90 µM |
